{
  "source": "patent US20070179085A1",
  "about": "“MODULATION OF RHAMM-CAVEOLIN/LIPID RAFT INTERACTIONS TO AFFECT DEVELOPMENT, RESPONSES TO TISSUE INJURY, ANGIOGENESIS, TUMORIGENESIS, METASTASIS AND GROWTH FACTOR/CYTOKINE RESPONSES” (priority 2005, published 2007)",
  "key": {"[1]": {"system": "male Sprague-Dawley rats", "assay": "Intratracheal bleomycin lung injury: macrophage accumulation (ED1) and lung architecture", "assay_type": "in vivo, rat", "text": "The Institutional Animal Care and Utilization Committees at both The Childrenls Hospital of Philadelphia and The University of Pennsylvania School of Medicine approved all animal care procedures. Six-week old (200-250 grams) male Sprague-Dawley rats (Charles River Breeding Laboratories, N. Wilmington, Mass.) were housed in the Animal Care Facility of The Children's Hospital of Philadelphia under standard conditions with free access to food and water. Animals were anesthetized with ketamine:xylazine:atropine (16:8:0.01 mg/kg), and the trachea was visualized through a vertical incision in the neck. Using an insulin syringe, 250 μl of either LPS-free saline or 8 units/kg bleomycin sulfate (Bristol Myers Squibb, Princeton, N.J.) in 250 μl of saline was injected into the trachea. The incision was closed with surgical clips, and animals were immediately injected intraperitoneally with either 0.5 mg of anti-RHAMM antibody (R36) or non-immune IgG. Antibody treatment was continued with daily injections of 0.5 mg of either R36 or IgG for either three or six days. At least three animals were examined for each condition, including one set that remained unmanipulated throughout.\nAnimals were sacrificed on days 4 or 7 after injury. Bronchoalveolar lavage (BAL) was obtained (36 ml/kg, total lung capacity) and immediately centrifuged at 500 g for 10 minutes to remove all cells and cellular debris. Approximately 80-90% of lavage was routinely recovered. The cellular pellet and the supernatant were separated and frozen at −70° C. until further analysis. […]\nMacrophage accumulation was quantified by immunofluorescent staining with the rat macrophage specific marker ED1 (Serotec, Raleigh, N.C.). Endogenous fluorescence was blocked with separate exposure to sodium borohydrate (1 g/10 ml PBS, 3 minutes×2) and 1 M glycine in PBS for 30 minutes. […] Three blinded, independent observers counted ED 1 positive cells per high power field to quantify macrophage accumulation in at least three lung sections from each animal. […]"}, "[2]": {"system": "alveolar macrophages", "assay": "Timelapse cinemicrography of macrophage motility", "assay_type": "cell-based, rat", "settings": "macrophages from bleomycin treated animals, 4 days", "method": "Freshly isolated cells from bronchoalveolar lavage of saline or bleomycin-treated animals were monitored for their motility using a Nikon TE-300 inverted microscope (Nikon Corp., Tokyo, Japan) to which a video camera (Hamamatsu CCD, Inc., Hamamatsu City, Japan) was attached. Cell locomotion of at least 20 cells per animal was determined using Metamorph (Universal Imaging Corp., Downingtown, Pa.). Cells were plated and maintained at 37° C. and followed for 2 hours with mean velocities calculated every 10 minutes. The effect of anti-RHAMM antibody was examined by adding 5 μg/ml of antibody per plate per treatment 15 minutes before measurement of motility. Non-immune IgG was used as a control. Each experiment was repeated at least three times."}},
  "data": [
    {"substance": "bleomycin sulfate", "values": [
      {"measurement": "increase in macrophage number", "setting": "[1]; IT bleomycin, ED1 positive cells per hpf", "value": 3, "unit": "fold"},
      {"measurement": "macrophage number (ED1 positive cells)", "setting": "[1]; lung sections after IT bleomycin 8 units/kg, R36 0.5 mg ip daily", "value": "28.4±4.7", "unit": "cells per hpf"},
      {"measurement": "lung architecture at seven days", "setting": "[1]; tissue sections, bleomycin-injured rats", "value": "influx of inflammatory cells with thickening of alveolar septae and early fibrosis"},
      {"measurement": "increase in motility of alveolar macrophages", "setting": "[2]", "value": 5, "unit": "fold"}
    ]}
  ]
}
